Experimental data published in patent US20090181963A1, “3H-[1,2,3]TRIAZOLO[4,5-D]PYRIMIDINE COMPOUNDS, THEIR USE AS mTOR KINASE AND PI3 KINASE INHIBITORS, AND THEIR [sequence]” (Wyeth, priority 2008, published 2009).

Assays:
[1] = target: PI3 Kinase γ (Homo sapiens, UniProt P48736); assay: Fluorescence polarization assay for PI3K (PI3 Kinase γ); format: biochemical; conditions: diC8-PI(4,5)P2 substrate, 25 μM ATP, one hour at 25° C.
[2] = target: PI3 Kinase α (Homo sapiens, UniProt P42336); assay: Fluorescence polarization assay for PI3K (PI3 Kinase α); format: biochemical; conditions: diC8-PI(4,5)P2 substrate, 25 μM ATP, one hour at 25° C.
PI3 Kinase α, sequence (P42336 whole entry): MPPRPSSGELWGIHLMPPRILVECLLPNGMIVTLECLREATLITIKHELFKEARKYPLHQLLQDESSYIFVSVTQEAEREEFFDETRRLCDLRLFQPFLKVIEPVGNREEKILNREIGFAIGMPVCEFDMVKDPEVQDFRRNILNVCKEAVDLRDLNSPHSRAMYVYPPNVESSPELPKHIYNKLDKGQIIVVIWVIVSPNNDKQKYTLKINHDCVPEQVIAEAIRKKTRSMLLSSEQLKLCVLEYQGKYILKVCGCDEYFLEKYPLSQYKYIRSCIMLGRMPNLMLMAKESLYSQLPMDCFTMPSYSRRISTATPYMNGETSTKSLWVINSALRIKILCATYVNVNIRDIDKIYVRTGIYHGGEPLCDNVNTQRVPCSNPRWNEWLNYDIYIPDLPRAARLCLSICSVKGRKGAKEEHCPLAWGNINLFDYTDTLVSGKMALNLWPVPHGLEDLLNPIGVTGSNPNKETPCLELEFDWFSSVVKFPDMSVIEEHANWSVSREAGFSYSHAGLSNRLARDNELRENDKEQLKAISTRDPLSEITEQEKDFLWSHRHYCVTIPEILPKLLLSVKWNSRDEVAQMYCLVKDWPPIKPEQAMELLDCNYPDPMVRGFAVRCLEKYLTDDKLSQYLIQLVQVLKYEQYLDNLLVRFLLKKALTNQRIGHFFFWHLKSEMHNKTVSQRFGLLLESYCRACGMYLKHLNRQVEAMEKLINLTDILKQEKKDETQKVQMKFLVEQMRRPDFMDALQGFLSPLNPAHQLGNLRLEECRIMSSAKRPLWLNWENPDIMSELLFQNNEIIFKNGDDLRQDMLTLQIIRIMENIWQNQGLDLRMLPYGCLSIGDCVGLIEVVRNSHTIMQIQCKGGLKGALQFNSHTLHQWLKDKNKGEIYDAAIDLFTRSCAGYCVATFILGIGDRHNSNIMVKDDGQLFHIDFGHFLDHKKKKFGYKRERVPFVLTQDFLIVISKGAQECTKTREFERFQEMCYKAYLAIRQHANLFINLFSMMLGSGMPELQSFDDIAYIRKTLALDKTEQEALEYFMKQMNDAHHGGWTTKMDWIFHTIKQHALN
PI3 Kinase α, sequence (P27986 whole entry partner): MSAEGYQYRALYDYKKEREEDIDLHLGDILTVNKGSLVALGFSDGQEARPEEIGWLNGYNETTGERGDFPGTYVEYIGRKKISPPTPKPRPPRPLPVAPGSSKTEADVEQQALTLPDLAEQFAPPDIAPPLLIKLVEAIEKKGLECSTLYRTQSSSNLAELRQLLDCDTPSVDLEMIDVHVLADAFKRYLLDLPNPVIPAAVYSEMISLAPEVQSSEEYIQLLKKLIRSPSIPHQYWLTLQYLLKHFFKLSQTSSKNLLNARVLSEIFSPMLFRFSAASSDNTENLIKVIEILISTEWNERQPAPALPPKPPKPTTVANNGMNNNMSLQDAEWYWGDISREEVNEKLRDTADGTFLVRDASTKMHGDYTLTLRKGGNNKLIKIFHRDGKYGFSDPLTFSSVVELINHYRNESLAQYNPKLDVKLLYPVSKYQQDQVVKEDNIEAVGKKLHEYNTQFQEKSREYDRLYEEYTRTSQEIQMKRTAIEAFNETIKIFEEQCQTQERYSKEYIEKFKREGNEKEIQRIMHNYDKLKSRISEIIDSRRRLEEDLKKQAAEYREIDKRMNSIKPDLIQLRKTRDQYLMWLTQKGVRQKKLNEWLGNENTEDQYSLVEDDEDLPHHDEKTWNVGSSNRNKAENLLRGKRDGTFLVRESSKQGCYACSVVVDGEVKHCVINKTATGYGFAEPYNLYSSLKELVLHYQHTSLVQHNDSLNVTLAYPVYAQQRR
Protocol: Nunc 384 well black polypropylene fluorescent plates were used for PI3K assays. Reactions were quenched by the addition of EDTA to a final concentration of 10 μM. Final reaction volumes were 10 ml. […] Reactions were allowed to proceed for one hour at 25° C. After I hour, GST-tagged GRP1 (general receptor for phosphoinositides) PH domain fusion protein was added to a final concentration of 100 nM, and BODIPY-TMRI(1,3,4,5)P4 (Echelon) was also added to a final concentration of 5 nM. Final sample volumes were 25 μl with a final DMSO concentration of 0.8%. Assay Plates were read on PerkinElmer Envision plate readers with appropriate filters for Tamra [BODIPY-TMRI(1,3,4,5)P4]. Data obtained were used to calculate enzymatic activity and enzyme inhibition by inhibitor compounds.

PI3 Kinase γ, sequence (P48736 whole entry): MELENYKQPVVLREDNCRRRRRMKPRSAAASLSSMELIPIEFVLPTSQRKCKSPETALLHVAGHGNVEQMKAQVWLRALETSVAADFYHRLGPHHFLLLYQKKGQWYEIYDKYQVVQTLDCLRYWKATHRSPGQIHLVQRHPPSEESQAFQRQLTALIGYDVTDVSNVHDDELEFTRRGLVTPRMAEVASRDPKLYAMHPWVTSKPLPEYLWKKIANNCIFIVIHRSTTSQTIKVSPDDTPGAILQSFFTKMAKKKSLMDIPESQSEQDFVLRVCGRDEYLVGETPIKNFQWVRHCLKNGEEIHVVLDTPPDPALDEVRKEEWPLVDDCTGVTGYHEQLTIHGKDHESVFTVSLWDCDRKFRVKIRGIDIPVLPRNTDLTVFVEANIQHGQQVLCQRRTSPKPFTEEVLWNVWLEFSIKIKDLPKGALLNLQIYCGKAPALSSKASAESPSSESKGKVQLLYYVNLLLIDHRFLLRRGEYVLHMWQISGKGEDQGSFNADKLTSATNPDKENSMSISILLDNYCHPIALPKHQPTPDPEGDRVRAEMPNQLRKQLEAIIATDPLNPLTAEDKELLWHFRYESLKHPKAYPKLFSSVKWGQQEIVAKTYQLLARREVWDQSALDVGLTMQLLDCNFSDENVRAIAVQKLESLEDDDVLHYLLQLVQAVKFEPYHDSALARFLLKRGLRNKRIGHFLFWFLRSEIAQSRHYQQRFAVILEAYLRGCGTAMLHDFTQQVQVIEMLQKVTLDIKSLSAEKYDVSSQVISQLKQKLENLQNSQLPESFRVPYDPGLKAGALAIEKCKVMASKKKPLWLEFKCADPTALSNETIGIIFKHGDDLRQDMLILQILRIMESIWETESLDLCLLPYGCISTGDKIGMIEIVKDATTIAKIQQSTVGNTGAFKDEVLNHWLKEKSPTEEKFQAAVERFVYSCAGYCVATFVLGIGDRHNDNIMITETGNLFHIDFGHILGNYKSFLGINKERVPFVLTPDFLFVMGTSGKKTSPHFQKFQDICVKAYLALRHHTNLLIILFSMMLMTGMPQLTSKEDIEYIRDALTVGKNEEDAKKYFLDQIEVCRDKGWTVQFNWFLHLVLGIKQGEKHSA

IC50 [1] [µM] | IC50 [2] [µM] | SMILES
0.0915 |  | CCn1nnc2c(N3CCOCC3)nc(-c3ccc(NC(=O)Nc4ccc(C(=O)OC)nc4)cc3)nc21 [Example 287, Methyl 5-({[4-(3-ethyl-7-morpholin-4-yl-3H-[1,2,3]triazolo[4,5-d]pyrimidin-5-yl)phenyl]carbamoyl}amino)pyridine-2-carboxylate]
0.00335 |  | CCn1nnc2c(N3CCOC[C@@H]3C)nc(-c3ccc(NC(=O)Nc4ccc(C(=O)NCCN5CCCC5)cc4)cc3)nc21 [Example 283, 4-{[(4-{3-ethyl-7-[(3S)-3-methylmorpholin-4-yl]-3H-[1,2,3]triazolo[4,5-d]pyrimidin-5-yl}phenyl)carbamoyl]amino}-N-(2-pyrrolidin-1-ylethyl)benzamide]
0.00435 |  | CCn1nnc2c(N3CCOC[C@@H]3C)nc(-c3ccc(NC(=O)Nc4ccc(C(=O)NCCN5CCCCC5)cc4)cc3)nc21 [Example 284, 4-{[(4-{3-ethyl-7-[(3S)-3-methylmorpholin-4-yl]-3H-[1,2,3]triazolo[4,5-d]pyrimidin-5-yl}phenyl)carbamoyl]amino}-N-(2-piperidin-1-ylethyl)benzamide]
0.0055 |  | CC(C)n1nnc2c(N3CCOCC3)nc(-c3ccc(NC(=O)Nc4ccc(N5CCN(C)CC5)cc4)cc3)nc21 [Example 277, 1-{4-[3-(1-methylethyl)-7-morpholin-4-yl-3H-[1,2,3]triazolo[4,5-d]pyrimidin-5-yl]phenyl}-3-[4-(4-methylpiperazin-1-yl)phenyl]urea]
0.006 |  | CCn1nnc2c(N3CCOCC3)nc(-c3ccc(NC(=O)Nc4ccc(C(=O)N5CCN(C)CC5)nc4)cc3)nc21 [Example 289, 1-[4-(3-ethyl-7-morpholin-4-yl-3H-[1,2,3]triazolo[4,5-d]pyrimidin-5-yl)phenyl]-3-{6-[(4-methylpiperazin-1-yl)carbonyl]pyridin-3-yl}urea]
0.0215 |  | CC(C)n1nnc2c(N3CCOCC3)nc(-c3ccc(NC(=O)Nc4ccc([N+](=O)[O-])cc4)cc3)nc21 [Example 278, 1-{4-[3-(1-methylethyl)-7-morpholin-4-yl-3H-[1,2,3]triazolo[4,5-d]pyrimidin-5-yl]phenyl}-3-(4-nitrophenyl)urea]
0.0028 |  | CCn1nnc2c(N3CCOC[C@@H]3C)nc(-c3ccc(NC(=O)Nc4ccc(C(=O)N5CCC(N(C)C)CC5)cc4)cc3)nc21 [Example 281, (S)-1-(4-(4-(dimethylamino)piperidine-1-carbonyl)phenyl)-3-(4-(3-ethyl-7-(3-methylmorpholino)-3H-[1,2,3]triazolo[4,5-d]pyrimidin-5-yl)phenyl)urea]
0.0075 |  | CC(C)n1nnc2c(N3CCOCC3)nc(-c3ccc(NC(=O)Nc4ccc(N)cc4)cc3)nc21 [Example 280, 1-(4-aminophenyl)-3-[4-(3-isopropyl-7-morpholin-4-yl-3H-[1,2,3]triazolo[4,5-d]pyrimidin-5-yl)phenyl]urea]
0.012 |  | CC(C)n1nnc2c(N3CCOCC3)nc(-c3ccc(NC(=O)Nc4ccc(NS(C)(=O)=O)cc4)cc3)nc21 [Example 279, N-[4-({[4-(3-isopropyl-7-morpholin-4-yl-3H-[1,2,3]triazolo[4,5-d]pyrimidin-5-yl)phenyl]carbamoyl}amino)phenyl]methanesulfonamide]
0.00445 |  | CCn1nnc2c(N3CCOCC3)nc(-c3ccc(NC(=O)Nc4ccc(NC(=O)NCCOC)cc4)cc3)nc21 [Example 276, 1-[4-(3-ethyl-7-morpholin-4-yl-3H-[1,2,3]triazolo[4,5-d]pyrimidin-5-yl)phenyl]-3-(4-{[(2-methoxyethyl)carbamoyl]amino}phenyl)urea]

The remaining lines, values behind:

SMILES | IC50 [1] [µM] | IC50 [2] [µM]
CCn1nnc2c(N3CCOC[C@@H]3C)nc(-c3ccc(NC(=O)Nc4ccc(C#N)cc4)cc3)nc21 [Example 75, (S)-1-(4-cyanophenyl)-3-(4-(3-ethyl-7-(3-methylmorpholino)-3H-[1,2,3]triazolo[4,5-d]pyrimidin-5-yl)phenyl)urea] | 0.0925 | 0.0135
CCn1nnc2c(N3CCOCC3)nc(-c3ccc(NC(=O)Nc4ccc(C(=O)NCCN5CCOCC5)cc4)cc3)nc21 [Example 53, 4-({[4-(3-ethyl-7-morpholin-4-yl-3H-[1,2,3]triazolo[4,5-d]pyrimidin-5-yl)phenyl]carbamoyl}amino)-N-(2-morpholin-4-ylethyl)benzamide] | 0.029 | 0.0035
CN(C)CCNC(=O)Nc1ccc(-c2nc(N3CCOCC3)c3nnn(C4CCN(Cc5cccnc5)CC4)c3n2)cc1 [Example 154, 1-(2-(dimethylamino)ethyl)-3-(4-(7-morpholino-3-(1-(pyridin-3-ylmethyl)piperidin-4-yl)-3H-[1,2,3]triazolo[4,5-d]pyrimidin-5-yl)phenyl)urea] | 0.058 | 0.206
CCn1nnc2c(N3CCOCC3)nc(-c3ccc(NC(=O)Nc4ccc(NCc5ccc(F)nc5)cc4)cc3)nc21 [Example 254, 1-[4-(3-ethyl-7-morpholin-4-yl-3H-[1,2,3]triazolo[4,5-d]pyrimidin-5-yl)phenyl]-3-(4-{[(6-fluoropyridin-3-yl)methyl]amino}phenyl)urea] | 0.0075 | 
CN(C)CCNC(=O)Nc1ccc(-c2nc(N3CCOCC3)c3nnn(C4CCN(Cc5ccccc5)CC4)c3n2)cc1 [Example 4, 1-{4-[3-(1-benzylpiperidin-4-yl)-7-morpholin-4-yl-3H-[1,2,3]triazolo[4,5-d]pyrimidin-5-yl]phenyl}-3-[2-(dimethylamino)ethyl]urea] | 0.204 | 0.066
C[C@H](NC(=O)c1ccc(Cn2nnc3c(N4CCOCC4)nc(-c4cccc(O)c4)nc32)cc1)c1ccccc1 [Example 224, 4-{[5-(3-hydroxyphenyl)-7-morpholin-4-yl-3H-[1,2,3]triazolo[4,5-d]pyrimidin-3-yl]methyl}-N-[(1S)-1-phenylethyl]benzamide] | 1.91 | 0.09
O=C(Nc1ccc(-c2nc(N3CCOCC3)c3nnn(CC(F)(F)F)c3n2)cc1)Nc1cccs1 [Example 141, 1-{4-[7-morpholin-4-yl-3-(2,2,2-trifluoroethyl)-3H-[1,2,3]triazolo[4,5-d]pyrimidin-5-yl]phenyl}-3-(2-thienyl)urea] | 0.03 | 0.0065
CCn1nnc2c(N3CCOCC3)nc(-c3ccc(NC(=O)NC4CCN(C(=O)OCc5ccccc5)CC4)cc3)nc21 [Example 65, benzyl 4-({[4-(3-ethyl-7-morpholin-4-yl-3H-[1,2,3]triazolo[4,5-d]pyrimidin-5-yl)phenyl]carbamoyl}amino)piperidine-1-carboxylate] | 1.8 | 5.63
O=C(Nc1ccc(-c2nc(N3CCOCC3)c3nnn(C4CCN(Cc5ccccc5)CC4)c3n2)cc1)Nc1cccc(Cl)c1 [Example 170, 1-{4-[3-(1-benzylpiperidin-4-yl)-7-morpholin-4-yl-3H-[1,2,3]triazolo[4,5-d]pyrimidin-5-yl]phenyl}-3-(3-chlorophenyl)urea] | 10.4 | 5.63
NC(=O)c1cccc(-n2nnc3c(N4CCOCC4)nc(-c4cccc(O)c4)nc32)c1 [Example 119, 3-[5-(3-hydroxyphenyl)-7-morpholin-4-yl-3H-[1,2,3]triazolo[4,5-d]pyrimidin-3-yl]benzamide] | 0.315 | 0.0225
Oc1cncc(-c2nc(N3CCOCC3)c3nnn(C4CCN(Cc5ccc(F)c(F)c5)CC4)c3n2)c1 [Example 18, 5-{3-[1-(3,4-difluorobenzyl)piperidin-4-yl]-7-morpholin-4-yl-3H-[1,2,3]triazolo[4,5-d]pyrimidin-5-yl}pyridin-3-ol] | 0.261 | 0.075
CC(C)(C)OC(=O)N1CCN(c2ccc(NC(=O)c3ccc(Cn4nnc5c(N6CCOCC6)nc(-c6cccc(O)c6)nc54)cc3)cc2)CC1 [Example 218, tert-Butyl 4-{4-[(4-{[5-(3-hydroxyphenyl)-7-morpholin-4-yl-3H-[1,2,3]triazolo[4,5-d]pyrimidin-3-yl]methyl}benzoyl)amino]phenyl}piperazine-1-carboxylate] | 8.08 | 0.071
CCn1nnc2c(N3CCOCC3)nc(-c3ccc(NC(=O)Nc4ccc([N+](=O)[O-])cc4)cc3)nc21 [Example 247, 1-[4-(3-ethyl-7-morpholin-4-yl-3H-[1,2,3]triazolo[4,5-d]pyrimidin-5-yl)phenyl]-3-(4-nitrophenyl)urea] | 0.015 | 
CCn1nnc2c(N3CCOCC3)nc(-c3ccc(NC(=O)Nc4ccc(NCc5ccncc5)cc4)cc3)nc21 [Example 252, 1-[4-(3-ethyl-7-morpholin-4-yl-3H-[1,2,3]triazolo[4,5-d]pyrimidin-5-yl)phenyl]-3-{4-[(pyridin-4-ylmethyl)amino]phenyl}urea] | 0.00383 | 
CCn1nnc2c(N3CCOCC3)nc(-c3ccc(NC(=O)Nc4ccc(NCc5ccc(OC)nc5)cc4)cc3)nc21 [Example 255, 1-[4-(3-ethyl-7-morpholin-4-yl-3H-[1,2,3]triazolo[4,5-d]pyrimidin-5-yl)phenyl]-3-(4-{[(6-methoxypyridin-3-yl)methyl]amino}phenyl)urea] | 0.005 | 
CCn1nnc2c(N3CCOCC3)nc(-c3ccc(NC(=O)Nc4ccc(N5CCN(C)CC5)cc4)cc3)nc21 [Example 259, 1-[4-(3-ethyl-7-morpholin-4-yl-3H-[1,2,3]triazolo[4,5-d]pyrimidin-5-yl)phenyl]-3-[4-(4-methylpiperazin-1-yl)phenyl]urea] | 0.004 | 
CC(C)n1nnc2c(N3CCOCC3)nc(-c3ccc(NC(=O)Nc4ccc(C(=O)N5CCN(C)CC5)cc4)cc3)nc21 [Example 257, 1-{4-[3-(1-methylethyl)-7-morpholin-4-yl-3H-[1,2,3]triazolo[4,5-d]pyrimidin-5-yl]phenyl}-3-{4-[(4-methylpiperazin-1-yl)carbonyl]phenyl}urea] | 0.01 | 
CCn1nnc2c(N3CCOCC3)nc(-c3ccc(NC(=O)Nc4ccc(NC(=O)N5CCOCC5)cc4)cc3)nc21 [Example 263, N-[4-({[4-(3-ethyl-7-morpholin-4-yl-3H-[1,2,3]triazolo[4,5-d]pyrimidin-5-yl)phenyl]carbamoyl}amino)phenyl]morpholine-4-carboxamide] | 0.0031 | 
